Experimental data taken from patent US20100210556A1, “USE OF A PEPTIDE AS A THERAPEUTIC AGENT” (priority 2007, published 2010).
Where no end group is shown, it is not given here. [ ]: non-standard residue; d: D form. βAla = NCCC(=O)O

What was measured:
[1] = test system: hepatitis B virus (HBV) ayw strain; assay: HBV assay in HepG2-2.2.15 cells, secreted HBV DNA by TaqMan PCR; assay type: cell-based; settings: 10 micrograms per ml, six days, HBV DNA in supernatant
A549 cells = assay: Apoptosis prevention assay (C2 ceramide, Annexin-5); assay type: cell-based; settings: human lung cells (A549), 10 micrograms per ml, 30 min pretreatment
Protocol: Human A549 cells (carcinomic human alveolar basal epithelial cells) were utilized in the experiments employing the Annexin-5 apoptosis assay. […] A549 cells were pretreated for 30 min with test peptides —10 micrograms per ml—followed by the exposure to C2 ceramide. […] C2 ceramide is a synthetic, membrane soluble analog of ceramide.

murine spleen cells = assay: Th1/Th2 cytokine profiling assay (Ovalbumin-restimulated spleen cells, CBA kit); assay type: cell-based, Balb/c mice; settings: 10 micrograms per ml, Ovalbumin restimulation, 72 hours
From the text: The Balb/c mice (originated in 1923, it is a popular strain and is used in many different research disciplines. Also classified as an inbred from the production of 20 or more successive brother-sister matings, the Balb/c mouse is albino and small in size) were immunized on Days 1, 15, and 29 with Ovalbumin (Ovalbumin is the main protein found in egg white, commonly used to stimulate an immunological reaction in test animals) in PBS (5 micrograms/injection). On day 50, spleens of the mice were harvested (3 weeks after last boost with Ovalbumin). Cells were cultured (2×10^5/well in triplicate) and incubated with culture medium or test peptides —10 micrograms per ml—for 30 min. Thereafter, additional Ovalbumin was added to the cells at 10 micrograms/ml for in vitro restimulation of the cells. 72 hours later, cell supernatants were harvested and assayed using the Becton Dickinson Mouse Th1/Th2 Cytokine CBA Kit. This kit can be used to measure Interleukin-2 (IL-2), Interleukin-4 (IL-4), Interleukin-5 (IL-5), Interferon-γ (IFN-γ), and Tumor Necrosis Factor-α(TNF-α) protein levels in a single sample.

[2] = test system: Primary Human endothelial cells (HUVEC); assay: Endothelial cell migration assay; assay type: cell-based; settings: 10 micrograms per ml, 22 hours
Protocol: Thereafter, designated concentration of testing peptides —10 micrograms per ml—was added in duplicate wells.

HUVEC = assay: Endothelial tube formation assay; assay type: cell-based, human; settings: 10 micrograms per ml, 20 hours
From the text: Positive control was vehicle only. […] Raw data were expressed as average tubule lenghs in pixels±standard deviation.

HCMV strain AD169 = assay: HCMV plaque formation assay in MRC-5 cells; settings: HCMV AD169, 10 micrograms per ml, 7-10 days
RAW 264.7 cells = assay: Phagocytosis assay (Fluorescein-labeled Escherichia coli, flow cytometry); settings: 10 micrograms per ml, 30 min preincubation, 60 min ingestion
Protocol: RAW 264.7 (Mouse leukaemic monocyte macrophage cell line) cells were obtained from ATCC and grown in RPMI 1640 medium containing 10% FBS. Cells were incubated in 12×75 mm tubes at 37° C. with test peptides —10 micrograms per ml—for 30 min prior to adding Fluorescein-labeled Escherichia coli bacteria as the agent to be ingested. After the cells were incubated for additional 60 min at 37° C. and allowed to ingest the Fluorescein-labeled Escherichia coli bacteria, cells were fixed with 1% paraformaldehyde. The samples were then analyzed by flow cytometry to determine the amount of phagocytosis as a function of brightness (the greater the phagocytic activity, the more fluorescence in the macrophage population). Data are reported as % positive and the mean fluorescence intensity (MFI) of positively stained cells.

HIV-1IIIB = assay type: cell-based; settings: CEM-SS T-cells, peptides 10 micrograms per ml, 6 days post-infection, MTS

Ala-Ile-Phe-Ile-Phe-Ile-Arg-Trp-Leu-Leu-Lys-Leu-Gly-His-His-Gly-Arg-Ala-Pro-Pro-OH (AIFIFIRWLLKLGHHGRAPP-OH) [Peptide 1]
inhibition of HBV replication as compared to the virus control infection [1]: 44.6%
reduction of ceramide-induced apoptosis (A549 cells): 28.2%
change of the production of IFN-gamma (murine spleen cells): did not significantly change
change of the production of IL-4 (murine spleen cells): did not significantly change
change of the production of IL-5 (murine spleen cells): did not significantly change
change of the production of TNF-alpha (murine spleen cells): did not significantly change
induction of the production of IL-2 (murine spleen cells): 156%
inhibition of the migration of human endothelial cells [2]: 19%
inhibition of the tube formation of human endothelial cells (HUVEC): 23%
inhibition of HCMV plaque formation as compared to the virus control experiment (HCMV strain AD169): did not inhibit
induction of phagocytosis as compared to the control experiment (RAW 264.7 cells): did not induced phagocytosis

Cc1cn([C@H]2C[C@H](N=[N+]=[N-])[C@@H](CO)O2)c(=O)[nH]c1=O [AZT]
inhibition of HIV-1 activity (antiviral activity) (HIV-1IIIB): expected levels of antiviral activity

[βAla]-His-OH [Peptide 2]
inhibition of HBV replication as compared to the virus control infection [1]: 29.6%
reduction of ceramide-induced apoptosis (A549 cells): did not reduce
change of the production of IFN-gamma (murine spleen cells): did not significantly change
change of the production of IL-4 (murine spleen cells): did not significantly change
change of the production of IL-5 (murine spleen cells): did not significantly change
change of the production of TNF-alpha (murine spleen cells): did not significantly change
induction of the production of IL-2 (murine spleen cells): 26.5%
inhibition of the migration of human endothelial cells [2]: 8%
inhibition of the tube formation of human endothelial cells (HUVEC): 21%
inhibition of HCMV plaque formation as compared to the virus control experiment (HCMV strain AD169): 4.4%
induction of phagocytosis as compared to the control experiment (RAW 264.7 cells): 48.6%

CC(C)(C)NC(=O)[C@@H]1CN(Cc2cccnc2)CCN1C[C@@H](O)C[C@@H](Cc1ccccc1)C(=O)N[C@H]1c2ccccc2C[C@H]1O [indinavir]
inhibition of HIV-1 activity (antiviral activity) (HIV-1IIIB): expected levels of antiviral activity
